Where a name gives a salt, the structure may show the parent alone.
Columns and labels:
[1] = Concentration of active ingredient before and after filtration through 0.22 μm filter; assay type: physicochemical
[2] = cited from earlier work
[3] = Batch 1, after filtration (0.22 μm filter)
[4] = Batch 1, before filtration (0.22 μm filter)
[5] = Batch 2, after filtration (0.22 μm filter)
[6] = Batch 2, before filtration (0.22 μm filter)

| SMILES | % of theoretical [1, 3] | Concentration [1, 3] | % of theoretical [1, 4] | Concentration [1, 4] | % of theoretical [1, 5] | Concentration [1, 5] | % of theoretical [1, 6] | Concentration [1, 6] | Solubility in water [2] |
| --- | --- | --- | --- | --- | --- | --- | --- | --- | --- |
| O=C(O)c1cn(C2CC2)c2cc(N3CCNCC3)c(F)cc2c1=O [Ciprofloxacin HCl] | 97.7% | 0.341% | 98.0% | 0.342% | 98.0% | 0.342% | 98.0% | 0.342% |  |
| CC1(C)O[C@@H]2C[C@H]3[C@@H]4C[C@H](F)C5=CC(=O)C=C[C@]5(C)[C@@]4(F)[C@@H](O)C[C@]3(C)[C@]2(C(=O)CO)O1 [Fluocinolone Acetonide] | 100.0% | 0.025% | 100.0% | 0.025% | 100.0% | 0.025% | 100.0% | 0.025% | virtually insoluble in water |

From patent US8932610B2, “Aqueous clear solutions of fluocinolone acetonide for treatment of otic inflammation” (Laboratorios Salvat, S.A., priority 2010, dated 2015)
